Patent US20040039062A1, “Urea, ruminally synthesizable mainly to microbial crude protein” (Agri-Nutrients Technology Group, Inc., priority 2002, published 2004)

What was measured:
[1] = Water solubility test of coated urea (5 gram sample in 200 grams distilled water at 39° C., urea dissolved after 10 hours); assay type: physicochemical
Method: The mixture was swirled briefly only when the sample was added and at the end of 10 hours. The percent of the urea dissolved in 10 hours was measured to be 45 by weight.

[2] = tested on: Fresh rumen fluid; assay: In-vitro urea conversion test: ruminal synthesis of urea to microbial crude protein (MCP) in rumen fluid; set-up: species or system heifer
Method: A series of urea conversion in-vitro tests were arranged using the following materials: (1) Fresh rumen fluid withdrawn via a pump through a strainer from a heifer receiving no feed for the prior two days. (2) Simulated Saliva composition of E. I. McGougal in Biochemical Journal, Vol. 43, page 106. (3) Cellulose energy source, Whatman Chromedia Microgranular Cellulose, free from other nutrient compounds. […] The in-vitro tests were run with each sample in a 250 ml Erlenmeyer flask receiving the ingredients listed as follows: [table] The test flasks were placed in a constant temperature bath operating at 39° C. Carbon dioxide was used to displace the air in the flasks. Samples amounting to 10 grams were withdrawn on an accurate time schedule with the air in the sample container replaced by carbon dioxide. The samples were immediately treated with 1 percent mercuric chloride to terminate microbial activity in the samples. The samples were analyzed for total nitrogen, ammonia nitrogen, and […] by difference.

Structure (SMILES): NC(N)=O [Test No. 6, urea]
- urea water solubilities at 39° C. (in words) [1]: high
- synthesis efficiencies to MCP (in words) ([2]; after 8 hours): low
- Urea Synthesized to MCP ([2]; rumen fluid, 8 hours): 3.6%
